Assay results as given in patent publication US5019575A, “Novel pyridazinone compounds, compositions thereof and method of use” (Orion-yhtyma Oy, priority 1989, dated 1991).
Read-outs that look alike come from different tables or passages of the source.

What was measured:
[1] = system: guinea-pig papillary muscle; test: Cardiotonic effect in isolated, electrically driven, right ventricular papillary muscle, without and with carbachol; conditions: for EC50: Cavia porcellus; for Ratio B/A of EC50: with 10 μM carbachol / without carbachol
Method: The cardiotonic action of the compound was studied in isolated, electrically driven, right ventricular papillary muscle of guinea-pig.
A = experiments carried out without carbachol
B = experiments carried out in the presence of 10 μM carbachol

[2] = system: troponin; test: Retention time in troponin high-performance liquid affinity chromatography (HPLAC) column, calcium dependent binding to troponin; conditions: for Ratio Ca^2+ /EDTA (retention times in troponin-HPLAC column): Ca^2+ solution / EDTA solution; for Retention time in troponin-HPLAC column, Ca^2+ solution: mobile phase with 30 mM calcium; for Retention time in troponin-HPLAC column, Ca^2+ solution / Retention time in troponin-HPLAC column, EDTA solution: flow rate 1 ml/min; for Retention time in troponin-HPLAC column, EDTA solution: mobile phase without calcium (EDTA)
Method: The contraction in cardiac muscle and in vascular smooth muscle is triggered by the binding of calcium to troponin and to calmodulin, respectively. […] Commercially available troponin was coupled to the matrix of SelectiSpher-10™ Activated Tresyl silica HPLAC column (size 10 cm×5 mm). The compounds were run through the column with the flow rate 1 ml/min and detected by UV-spectrophotometrically.

[3] = molecular target: T1, cardiac phosphodiesterase III (PDEIII), guinea-pig (Cavia porcellus, UniProt H0VIU9); test: Inhibition of cardiac phosphodiesterase III, guinea-pig heart enzyme preparation; format: biochemical
T1 construct: enzyme preparation isolated from dog and guinea-pig heart; from tissue; host or cells: guinea-pig heart
T1 sequence (H0VIU9 1-1132): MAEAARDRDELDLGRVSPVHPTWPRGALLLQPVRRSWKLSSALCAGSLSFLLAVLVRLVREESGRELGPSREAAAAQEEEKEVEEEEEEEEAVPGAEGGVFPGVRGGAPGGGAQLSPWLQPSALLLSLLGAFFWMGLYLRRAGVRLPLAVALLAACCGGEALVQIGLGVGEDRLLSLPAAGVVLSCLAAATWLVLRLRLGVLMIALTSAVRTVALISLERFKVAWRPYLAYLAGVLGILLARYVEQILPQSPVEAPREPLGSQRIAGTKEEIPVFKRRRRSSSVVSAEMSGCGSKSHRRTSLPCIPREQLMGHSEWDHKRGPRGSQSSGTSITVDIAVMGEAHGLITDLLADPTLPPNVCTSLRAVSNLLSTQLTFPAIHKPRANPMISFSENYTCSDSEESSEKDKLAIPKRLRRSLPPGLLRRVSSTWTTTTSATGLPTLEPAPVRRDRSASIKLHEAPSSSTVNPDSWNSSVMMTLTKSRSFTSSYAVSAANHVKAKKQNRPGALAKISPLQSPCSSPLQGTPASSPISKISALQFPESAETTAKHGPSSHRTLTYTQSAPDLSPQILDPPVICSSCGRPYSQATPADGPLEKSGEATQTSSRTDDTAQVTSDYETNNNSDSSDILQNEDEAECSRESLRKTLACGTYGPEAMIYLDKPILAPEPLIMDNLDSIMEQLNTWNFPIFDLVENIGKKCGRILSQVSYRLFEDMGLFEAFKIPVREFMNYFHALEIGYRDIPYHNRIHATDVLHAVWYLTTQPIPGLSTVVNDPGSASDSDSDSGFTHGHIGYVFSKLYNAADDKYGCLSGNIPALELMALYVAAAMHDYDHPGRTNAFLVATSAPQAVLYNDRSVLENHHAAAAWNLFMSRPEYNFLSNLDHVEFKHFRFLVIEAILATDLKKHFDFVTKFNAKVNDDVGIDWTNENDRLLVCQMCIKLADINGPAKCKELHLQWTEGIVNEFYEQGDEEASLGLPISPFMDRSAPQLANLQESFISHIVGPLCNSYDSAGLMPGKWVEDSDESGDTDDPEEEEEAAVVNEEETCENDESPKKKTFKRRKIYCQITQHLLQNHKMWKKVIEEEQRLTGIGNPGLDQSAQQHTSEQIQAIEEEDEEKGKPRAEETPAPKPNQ
Source text: The PDEIII inhibition was studied by using enzyme preparation isolated from dog and guinea-pig heart according to Alajoutsijarvi and Nissinen (Anal. Biochem. 165, 128-132, 1987).

[4] = system: guinea-pig papillary muscle; test: Ability to induce tonic contraction in papillary muscle in the absence of extracellular calcium; conditions: drug concentration 100 μM; no extracellular calcium
Method: The cardiotonic action of the compound was studied in isolated, electrically driven, right ventricular papillary muscle of guinea-pig. In order to compare the cardiotonic action based on PDEIII inhibition to that based on the other mechanisms the experiments were carried out in normal Tyrode's bathing solution (Otani et al., Japan. J. Pharmacol. 45, 425, 1987) and also in the solution with carbachol to eliminate the cardiotonic action due to the PDEIII inhibition (Alousi & Johnson, Circulation, 73 (suppl. III), 10-23, 1986).
C = ability to induce tonic contraction in the absence of extracellular
calcium; drug concentration 100 μM

[5] = molecular target: T2, cardiac phosphodiesterase III (PDEIII), dog (Canis lupus familiaris, UniProt A0A8I3NYE0); test: Inhibition of cardiac phosphodiesterase III, dog heart enzyme preparation; format: biochemical
T2 construct: enzyme preparation isolated from dog and guinea-pig heart; from tissue; host or cells: dog heart
T2 sequence (A0A8I3NYE0 1-1135): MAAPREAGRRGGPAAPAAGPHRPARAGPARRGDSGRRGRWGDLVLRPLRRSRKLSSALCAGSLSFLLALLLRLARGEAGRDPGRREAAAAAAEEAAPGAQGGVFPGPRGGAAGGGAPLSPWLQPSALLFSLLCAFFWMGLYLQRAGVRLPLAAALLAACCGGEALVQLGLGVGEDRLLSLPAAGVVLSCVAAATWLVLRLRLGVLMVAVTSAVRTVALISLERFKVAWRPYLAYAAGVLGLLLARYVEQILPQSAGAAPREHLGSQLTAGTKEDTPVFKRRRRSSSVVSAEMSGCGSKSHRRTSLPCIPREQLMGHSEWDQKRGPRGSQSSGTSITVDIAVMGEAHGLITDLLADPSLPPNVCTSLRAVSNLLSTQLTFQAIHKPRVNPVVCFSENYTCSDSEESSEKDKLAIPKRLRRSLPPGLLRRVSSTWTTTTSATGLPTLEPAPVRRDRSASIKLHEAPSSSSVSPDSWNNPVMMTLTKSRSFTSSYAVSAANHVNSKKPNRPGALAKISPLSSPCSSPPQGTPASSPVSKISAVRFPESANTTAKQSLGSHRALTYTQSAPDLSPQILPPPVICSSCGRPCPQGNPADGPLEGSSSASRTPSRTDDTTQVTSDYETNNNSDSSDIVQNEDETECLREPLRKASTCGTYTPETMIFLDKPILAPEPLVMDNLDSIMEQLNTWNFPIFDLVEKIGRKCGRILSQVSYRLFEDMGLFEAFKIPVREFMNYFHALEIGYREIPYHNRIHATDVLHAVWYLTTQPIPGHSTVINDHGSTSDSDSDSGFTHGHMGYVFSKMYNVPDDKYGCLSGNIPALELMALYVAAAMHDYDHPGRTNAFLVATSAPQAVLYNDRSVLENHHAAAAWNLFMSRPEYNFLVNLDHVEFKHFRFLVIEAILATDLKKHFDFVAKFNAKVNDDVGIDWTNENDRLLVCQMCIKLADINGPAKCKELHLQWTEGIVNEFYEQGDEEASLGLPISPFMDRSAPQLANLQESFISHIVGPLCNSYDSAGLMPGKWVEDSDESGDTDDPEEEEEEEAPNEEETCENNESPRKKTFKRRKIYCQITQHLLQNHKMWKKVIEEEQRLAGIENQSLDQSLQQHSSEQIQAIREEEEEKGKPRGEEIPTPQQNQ

[6] = Precipitation at 100 μM concentration (footnote of Table 3); format: physicochemical; design: key: *: precipitation occurs at 100 μM concentration; conditions: printed in column C of Table 3
[7] = without carbachol, read-out: EC50 cardiotonic effect (A)
[8] = dog heart, read-out: IC50-value, inhibition of cardiac phosphodiesterase III, Dog
[9] = read-out: EC50 cardiotonic effect (A)

| SMILES | EC50 [1, 7] [nM] | Ratio Ca^2+ /EDTA (retention times in troponin-HPLAC column) [2] | Retention time in troponin-HPLAC column, Ca^2+ solution [2] [min] | Retention time in troponin-HPLAC column, EDTA solution [2] [min] | IC50 [3] [nM] | C: ability to induce tonic contraction in the absence of extracellular calcium [4] | IC50 [5, 8] [nM] | EC50 [1, 9] [nM] | EC50 ([1]; in the presence of 10 μM carbachol, read-out: EC50 cardiotonic effect (B)) [nM] | Ratio B/A of EC50 [1] | precipitation [6] | IC50 [5] [nM] |
| --- | --- | --- | --- | --- | --- | --- | --- | --- | --- | --- | --- | --- |
| CC1SC(=O)NN=C1c1ccc(NN=C(C#N)C#N)cc1 (stereo not shown) [Example 41, 5-[4-(1,1-dicyanomethylidenehydrazino)phenyl]-5,6-dihydro-6-methyl-1,3,4-thiadiazin-2(3H)one] | 120 | 2.19 | 10.5 | 4.8 | 24 | yes |  |  |  |  |  |  |
| O=C1CCC(c2ccc(Nc3ccncc3)cc2)=NN1 [MCI-154, reference compound] |  | 0.52 | 6.5 | 12.4 |  |  | 420 |  |  |  |  |  |
| CC1CC(=O)NN=C1c1ccc(NN=C(C#N)C#N)cc1 (stereo not shown) [Example 6, 6-[4-(1,1-dicyanomethylidenehydrazino)phenyl]-4,5-dihydro-5-methylpyridazin-3(2H)one] |  |  |  |  |  |  | 62 | 170 |  |  |  |  |
| COc1ccc(-c2nc3ccc(C4=NNC(=O)CC4C)cc3[nH]2)cc1 (stereo not shown) [pimobendan, reference compound] | 3300 | 0.88 | 70.4 | 79.6 |  | no | 1750 |  |  |  |  |  |
| N#CC(C#N)=NNc1ccc(C=CC2=NNC(=O)SC2)cc1 [Example 49, 5-[2-(4-(1,1-dicyanomethylidenehydrazino)phenyl)ethenyl]-5,6-dihydro-1,3,4-thiadiazin-2(3H)one] |  | 2.30 | 18.4 | 8.0 | 24 | yes |  | 1100 |  |  |  |  |
| N#CC(C#N)=NNc1ccc(C2=NNC(=O)NC2)cc1 [Example 45, 6-[4-(1,1-dicyanomethylidenehydrazino)phenyl]-4,5-dihydro-1,2,4-triazin-3(2H)one] |  | 2.33 | 2.1 | 0.9 |  |  |  |  |  |  |  |  |
| CC1CC(=O)NN=C1/C=C/c1ccc(NN=C(C#N)C#N)cc1 (stereo not shown) [Example 33, (E)-6-[2-(4-(1,1-dicyanomethylidenehydrazino)phenyl)ethenyl]-4,5-dihydro-5-methylpyridazin-3(2H)one] | 300 | 1.69 | 6.6 | 3.9 | 6 | yes |  |  |  |  |  |  |
| CC(=O)C(=NNc1ccc(C2=NNC(=O)CC2)cc1)C(C)=O [Example 7, 6-[4-(1,1-diacetylmethylidenehydrazino)phenyl]-4,5-dihydropyridazin-3(2H)on] | 740 | 1.29 | 5.4 | 4.2 |  |  | 230 |  | 2700 | 3.6 | * |  |
| CC1NC(=O)NN=C1c1ccc(NN=C(C#N)C#N)cc1 (stereo not shown) [Example 43, 6-[4-(1,1-dicyanomethylidenehydrazino)phenyl]-4,5-dihydro-5-methyl-1,2,4-triazin-3(2H)one] |  | 2.00 | 2.4 | 1.2 | 17 |  |  |  |  |  |  |  |
| N#CC(C#N)=NNc1ccc(C2=NNC(=O)CC2)cc1 [Example 1, 6-[4-(1,1-dicyanomethylidenehydrazino)phenyl]-4,5-dihydropyridazin-3(2H)one] |  | 1.59 | 3.5 | 2.2 |  | yes | 270 | 1800 |  | 2.0 |  |  |
| Cc1[nH]c(=O)c(C#N)cc1-c1ccncc1 [milrinone, reference compound] |  | 1.00 | 1.2 | 1.2 | 440 | no |  | 360 |  | 15.3 |  | 580 |
| N#CC(C#N)=NNc1ccc(C2=NNC(=O)SC2)cc1 [Example 44, 5-[4-(1,1-dicyanomethylidenehydrazino)phenyl]-5,6-dihydro-1,3,4-thiadiazin-2(3H)one] | 1100 |  |  |  | 51 | yes |  |  |  |  |  |  |
| CC1(C)C(=O)Nc2cc3[nH]c(-c4ccncc4)nc3cc21 [adibendan, reference compound] |  | 0.99 | 14.8 | 15.0 |  |  | 1000 |  |  |  |  |  |
